From patent publication US20210292736A1, “PROTEIN LABELLING” (The Provost, Fellows, Scholars and other Members of Board …, priority 2020, published 2021)

Assays:
UCHL1 = biological target: T1, UCHL1 (Homo sapiens, UniProt P09936); test: Eosin Y visible light-mediated labelling of recombinant UCHL1; assay type: biochemical; details: UCHL1 2 μg, probe 1 3 μg; 10 W white light from 50 cm vs UV 365 nm
T1 sequence (P09936 1-223): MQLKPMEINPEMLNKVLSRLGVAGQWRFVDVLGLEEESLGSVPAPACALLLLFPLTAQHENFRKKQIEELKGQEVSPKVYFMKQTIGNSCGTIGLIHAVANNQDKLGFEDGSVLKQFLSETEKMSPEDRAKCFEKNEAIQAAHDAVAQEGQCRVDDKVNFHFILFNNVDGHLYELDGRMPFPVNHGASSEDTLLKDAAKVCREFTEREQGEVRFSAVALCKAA
Method: (§1) FIG. 18—comparative analysis of labelling using Eosin Y as the initiator relative to DPAP and MAP for recombinant enzymes OTUB1 (2 μg) and UCHL1 (2 μg), lanes 2-4 and 5-7, with probe 1 (3 μg) visualised by anti-HA western blot. Samples were preincubated for 90 min at 37° C. Lanes 3 and 6 were degassed for 2 min using N2 before the addition of DPAP and MAP or Eosin Y to the indicated samples. A further incubation was carried out for 10 min at 37° C. while lanes 3 and 6 were exposed to UV light (365 nm) and lanes 4, and 7 were exposed to a 10 W white light lamp from 50 cm.
Once optimised, a comparative labelling was carried out between these optimised Eosin Y labelling conditions versus the conditions optimised for DPAP and MAP labelling (FIG. 18). At this point to check the generality of the method, a further DUB, UCHL1 was tested alongside OTUB1.
Probe 1 ([…]) was incubated with OTUB1 (0.2 μL, 13.78 μg/μL, in storage buffer) or UCHL1 (3.3 μL, 0.9 μg/μL, in storage buffer). The final volume of the labelling was adjusted to 30 μL with homogenisation buffer containing TCEP (1 mM). A stock solution of Eosin Y (0.29 mM in DMSO—homogenisation buffer, 4:1) was prepared fresh before use and protected from light. The reaction was preincubated for 90 min at 37° C. with gentle shaking before the addition of Eosin Y (0.5 μL of stock for recombinant enzyme labelling, final conc.=5 μM). […]

recombinant DUB OTUB1 = recombinant DUB OTUB1 (Homo sapiens, UniProt Q96FW1); test: Eosin Y visible light-mediated labelling of recombinant OTUB1; assay type: biochemical; design: His; details: OTUB1 2 μg, probe 1 3 μg; 10 W white light from 50 cm vs UV 365 nm
Method: FIG. 13—labelling of OTUB1 (2 μg) with probe 1 (3 μg) visualised by anti-HA western blot. Samples were preincubated for 90 min at 37° C. before the addition of Eosin Y. Samples were incubated for a further 10 min at 37° C. in the dark (lane 3) in ambient light (lane 4) or exposed to a 10 W white light lamp from 10 cm (lane 5).
as §1
Firstly, the reactivity of the probe with the recombinant DUB OTUB1 was assessed using Eosin Y as the sole photoinitiator (FIG. 13). Triethanolamine, or similar coinitiators, could be used in combination with Eosin Y. The reaction was initiated using ambient light or a 10 W white light bulb. As a control, an equivalent sample was kept in darkness for the duration of the experiment. […]

[1] = system: DUBs in HEK 293T cell lysate; test: Thiol-ene labelling in HEK293T cell lysate (anti-HA western blot); assay type: biochemical, H. sapiens; details: NEM 10 mM (FIG. 3A lane 8 vs 4)
Method: Controls included using NEM (10 mM), the Ub75CH2CH2Br probe (1 μg) and a labelling excluding initiators. (B) HEK 293T cell lysate (50 μg) was pre-incubated for varying periods of time with probe 1 (1 μg) before exposure to UV light (365 nm) for 2 min.
After confirming reactivity with a recombinant DUB, probe 1 was tested in HEK293T cell lysate using conditions analogous to those described for the recombinant enzyme labelling (FIG. 3). […] Exposure time to UV light was optimised, with conditions tested from […] (FIG. 3A, lanes 2-7). No labelling is observed at the 0 minute time point (FIG. 3A, lane 2). There is no discernible difference between the 1 minute and 10 minute timepoints (FIG. 3A, lanes 3 and 4). […] Two further control experiments were performed to validate the need for free thiols and to compare to an existing probe. […] Covalent bond formation therefore requires free cysteine residues. A labelling reaction with the known HA-Ub75CH2CH2Br probe was subjected to the same conditions as the thiol-ene labelling to confirm there was no degradation of the lysate under these conditions (FIG. 3A, lanes 9 and 10).
It was next examined how the pre-incubation period affected the labelling pattern (FIG. 3B, lanes 1-5). It was reasoned that prior to activation, a binding equilibrium must be established between the probe and target enzymes to yield the rapid labelling observed. […]

[2] = system: DUBs in HEK293T cell lysate; test: PR-619 pre-incubation assay; assay type: biochemical, H. sapiens; details: lysate pre-incubated with increasing concentrations of PR-619, then probe 1 (1 μg) 90 min, UV 2 min
Method: (§2) (A) HEK 293T cell lysate (50 μg) was pre-incubated for 90 min with increasing concentrations of PR-619 before being labelled with the probe 1 (1 μg). (B) HEK 293T cell lysate (50 μg) was pre-incubated with probe 1 (1 μg) for 90 min before PR-619 was added at increasing concentrations. (C) HEK 293T cell lysate (50 μg) was incubated with Ub75CH2CH2Br and PR 619 (100 μM) was added to one sample. All samples were exposed to UV light (365 nm) for 2 min.
(§3) It was next set out to test the modulation of labelling using the known pan DUB inhibitor, PR-619 (X. Tian, N. S. Isamiddinova, R. J. Peroutka, S. J. Goldenberg, M. R. Mattern, B. Nicholson and C. Leach, Assay Drug Dev Technol, 2011, 9, 165-173). PR-619 was incubated with cell lysate for 30 min prior to the addition of probe 1 and the labelling was then carried out under optimised conditions with a 90 min pre-incubation time. […] This implies specificity of probe 1 towards DUBs. […] PR-619 was titrated into the mixture at increasing concentrations and incubated for a further 30 min before the addition of initiators and exposure to UV light (FIG. 4B). A parallel experiment was set up with the Ub75CH2CH2Br probe for comparison (FIG. 4C). […] (FIG. 4C, lanes 2 and 3). To check the integrity of the probe and cell lysate under these conditions a silver stain of the samples was also performed (FIG. 9). […]

[3] = system: DUBs in HEK293T cell lysate; test: PR-619 equilibrium disruption assay; assay type: biochemical, H. sapiens; details: probe 1 pre-incubated with lysate 90 min, PR-619 titrated 0-100 μM, further 30 min, UV 2 min
Method: as §2, §3

Sequence of recombinant DUB OTUB1 (Q96FW1 whole entry): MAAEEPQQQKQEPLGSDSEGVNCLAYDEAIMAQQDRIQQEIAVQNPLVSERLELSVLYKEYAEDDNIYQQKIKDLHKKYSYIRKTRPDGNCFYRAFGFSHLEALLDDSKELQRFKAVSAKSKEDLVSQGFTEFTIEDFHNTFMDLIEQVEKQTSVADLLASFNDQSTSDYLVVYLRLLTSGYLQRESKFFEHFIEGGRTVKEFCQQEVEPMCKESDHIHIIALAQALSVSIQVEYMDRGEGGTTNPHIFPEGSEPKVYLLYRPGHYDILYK

O=C([O-])c1ccccc1-c1c2cc(Br)c(=O)c(Br)c-2oc2c(Br)c([O-])c(Br)cc12.[Na+].[Na+] [Eosin Y, reference compound]
probe capture with Eosin Y relative to DPAP and MAP (UCHL1): probe capture was comparable
probe capture with Eosin Y relative to DPAP and MAP (recombinant DUB OTUB1): probe capture was comparable

CCN1C(=O)C=CC1=O [NEM, N-ethylmaleimide, reference compound]
effect on probe 1 labelling [1]: inhibited labelling

N#CSc1cc(SC#N)c(N)nc1N [PR-619]
effect on probe 1 labelling intensity, inhibitor before probe [2]: concentration-dependent reduction in labelling intensity
effect on probe 1 labelling, inhibitor added after binding equilibrium [3]: abrogates the labelling in a concentration dependent manner
